Experimental data reported in publication PMC4957748, “Development of Novel Erythromycin Derivatives with Inhibitory Activity against Proliferation of Tumor Cells” (PLoS ONE, 2016).

Assays:
[1] = tested on: Hela cells; test: Flow cytometry cell cycle analysis (PI), Hela; format: cell-based, human; details: 1b 24 h
Protocol: (§1) To understand the mechanism driving the antiproliferative activity of the prepared compounds, we analyzed using flow cytometry the cell cycles of Hela and MCF-7 treated for 24h with the selected active compound 1b at 0.5, 1.0 and 2.0μM concentrations (Fig 2B). […] The percentage of apoptotic cells depended on the concentration of 1b.
(§2) Cells were dispensed in 25 ml culture bottle at a density of 5 ×10^5 per bottle. After 24 h incubation, they were treated with compound 1b at given concentrations for 24h. The cells were harvested by 0.05% trypsin (Sigma, St. Louis, MO), then collected by centrifugation, washed with PBS, and fixed with 10 ml ice-cold 70% ethanol at 4°C overnight. After washed with PBS, the cells were suspended in 1ml propidium iodide (PI; 50 mg/L; Sigma, St. Louis, MO) solution supplemented with 1 g/L RNase A (Sigma, St. Louis, MO). Finally, the samples were analyzed by FACScan flow cytometer (Becton Dickinson, Franklin, NJ, USA).

[2] = tested on: Bax, Bcl-2, cyt c, Caspase-3 in HeLa cells; test: Western blot analysis of apoptotic proteins, HeLa; format: cell-based, human; details: 24 h
Protocol: (§3) Bax and Bcl-2 proteins are two key apoptosis regulators of Bcl-2 family that govern mitochondrial outer membrane permeabilization (MOMP). To investigate the effects of 1b on Bax and Bcl-2 expressions and its association with cell apoptosis and proliferation, HeLa and MCF-7 cells were treated with different concentration of 1b for 24h before western blot analysis (Fig 6). […] Treatment with 1b led to Δψm depolarization, MOMP enhancing and pro-apoptotic proteins release.
(§4) Cytochrome complex (cyt c) and Caspase-3 play important roles in the process of cell apoptosis. In our case, the effects of 1b on the expression of cyt c and Caspase-3 were examined by treatment of HeLa and MCF-7 cells with different concentration of 1b. […] Treatment with 1b promoted the translocation of cyt c from the mitochondria to cytoplasm. In addition, the amount of 17 kDa cleaved Caspase-3 increased, accompanying with the reducing of zymogen.
(§5) Cells were seeded in 75 mL culture flask at a density of 8 ×10^5 (MCF-7) or 1.2×10^6 (HeLa) and incubated for 24 h. Thereafter, cells were treated with 0, 0.5, 1.5 or 2.5 μM 1b for 24h and harvested by trypsin into the EP tubes.
(§6) For total protein extraction, the cell pellets were lysed in RIPA buffer (Beyotime) supplemented with PMSF on ice for 30 min. After centrifuging at 12000 g for 10 min at 4°C, the cell suspension was collected as the whole cell protein. Cytoplasmic proteins and mitochondrial proteins were extracted from cells using Cell Mitochondria Isolation Kit according to the instructions of manufacturer. The protein concentrations were quantified with BCA Protein Assay Kit (Beyotime) and a plate reader according to the manufacturer’s protocols.
(§7) For western blot analysis, equal protein lysates were separated by electrophoresis on 12% SDS-PAGE gels, and transferred onto PVDF membranes. After blocking with 5% non-fat milk in PBS for 2.5 h at room temperature, the membranes were incubated with primary antibody overnight at 4°C: Bax (1:2000), Bcl-2 (1:1000), Caspase-3 (1:500), Cytochrome c (1:500), and β-actin (1:3000). Then, the blots were washed three times for 10 min each in Tris-NaCl and incubated with secondary HRP-conjugated goat anti-mouse or anti-rabbit IgGs (1:6000 or 1:5000) for 2.5 h at 37°C. The interest proteins were visualized using ECL, and β-actin served as the internal control.

[3] = tested on: Hela cells; test: Mitochondrial potential assay (Rhodamine 123), HeLa; format: cell-based, human; details: 24 h
Protocol: Mitochondria play a key role in the process of apoptosis. After treatment with 1b for 24h and stained with Rhodamine 123, the mitochondrial membrane potential (Δψm) changes in HeLa and MCF-7 cells were observed by flow cytometer.
Cells were seeded in 6-well plates at a density of 0.8×10^5 (MCF-7) or 1.0×10^5 (HeLa) per well. After 24 h of incubation, cells were treated with 0, 0.5, 1.5 or 2.5 μM 1b for another 24h. Subsequently, cells were washed with PBS twice, incubated with 1 μg/mL Rhodamine 123 in 1 mL PBS at 37°C for 30 min, and analyzed by FACScan flow cytometer.

[4] = tested on: Hela cells; test: Annexin V-FITC/PI apoptosis analysis, Hela; format: cell-based, human; details: 2.5 μM, 24 h (control 4.68%)
Protocol: (§8) The majority of cells (Hela, 88.44% and MCF-7 89.30%) in the control samples were viable and non-apoptotic. […] In addition, an increase in the Annexin V+PI+ population was also observed which indicates late apoptotic or dead cells.
(§9) Cell apoptosis was determined using AnnexinV-FITC/PI Assay Kit according to the manufacturers’ protocols. Briefly, cells were seeded in 6-well plates at a density of 1.2×10^5 (MCF-7) or 1.5×10^5 (HeLa) per well and incubated for 24 h. Then, cells were treated with 0, 0.5, 1.5 or 2.5 μM 1b for 24h. After washed with PBS twice, cells were re-suspended in 100 μL binding buffer containing 5 μL AnnexinV-FITC and 5 μL PI. Following 10 min of incubation, cells were detected by FACScan flow cytometer.

[5] = tested on: MCF-7 cells; test: Annexin V-FITC/PI apoptosis analysis, MCF-7; format: cell-based, human; details: MCF-7, 2.5 μM, 24 h (control 3.28%)
Protocol: as §8, §9

[6] = tested on: MCF-7 cells; test: Flow cytometry cell cycle analysis (PI), MCF-7; format: cell-based, human; details: MCF-7, 1b 24 h
Protocol: as §1, §2

[7] = tested on: Bax, Bcl-2, cyt c, Caspase-3 in MCF-7 cells; test: Western blot analysis of apoptotic proteins, MCF-7; format: cell-based, human; details: 24 h
Protocol: as §3, §4, §5, §6, §7

[8] = tested on: gastric adenocarcinoma (SGC-7901) cells; test: MTT antiproliferative assay, SGC-7901; format: cell-based, human; details: Homo sapiens, SGC-7901, 24 h of drug exposure, mean±SD of 3 experiments
Protocol: (§10) In vitro antiproliferative activity against three human tumor cell lines, including gastric adenocarcinoma (SGC-7901), oral carcinoma (KB) and fibrosarcoma (HT-1080), was evaluated using the MTT assay with cis-platinum (Cpt) as the positive control.
(§11) The antiproliferative activity of the synthetic compounds was measured by 3-(4, 5- dimethylthiazol-2-yl)-2, 5-diphenyltetrazolium bromide (MTT) assay. Cells were seeded in 96-well plates (Corning, NY, USA) at a density of 8×10^3 per well. After 24 h of incubation, cells were treated with different concentrations (0.1, 0.3, 1, 3 and 10 μg/ml) of the EM-A dimers for the indicated time periods. Afterwards, MTT (Sigma, St. Louis, MO) solution [5.0 mg/ml in phosphate-buffered saline (PBS)] was added (20 μl/well) and incubated for another 4 h at 37°C. The purple formazan crystals were then dissolved in 100 μl dimethyl sulfoxide (DMSO). After 5 min, the plates were read on a plate microreader (TECANSPECTRA, Wetzlar, Germanay) at 490 nm. The IC50 values were obtained using the software of Dose–Effect Analysis with Microcomputers and were defined as concentration of drug causing 50% inhibition in absorbance compared with control cells. Assays were performed in triplicate from three independent experiments.

[9] = tested on: fibrosarcoma (HT-1080) cells; test: MTT antiproliferative assay, HT-1080; format: cell-based, human; details: Homo sapiens, HT-1080, 24 h of drug exposure, mean±SD of 3 experiments
Protocol: as §10, §11

[10] = tested on: normal mouse fibroblast cells (L929); test: MTT assay, toxicity against normal fibroblasts L929; format: cell-based; details: L929, 24 h of drug exposure
Protocol: as §11

[11] = tested on: oral carcinoma (KB) cells; test: MTT antiproliferative assay, KB; format: cell-based, human; details: Homo sapiens, KB, 24 h of drug exposure, mean±SD of 3 experiments
Protocol: as §10, §11

[12] = HeLa, 0.5, 1.5, 2.5 μM, vs control, dose-dependent, P<0.01
[13] = MCF-7, 0.5, 1.5, 2.5 μM, vs control, dose-dependent, P<0.01

| IC50 [8] [µM] | IC50 [9] [µM] | IC50 [11] [µM] | Compound | percentage of SubG1 peaks ([1]; highest concentration (control 2.28%)) [%] | percentage of G0/G1 peaks ([1]; highest concentration (control 55%)) [%] | BCL-2 expression [2, 12] | Bax expression [2, 12] | amount of 17 kDa cleaved Caspase-3 ([2]; HeLa, 0.5 to 2.5 μM) | expression of cyt c in the cytoplasm ([2]; HeLa, concentration increased from 0.5 to 2.5 μM) | mitochondrial membrane potential (Rhodamine 123) ([3]; 0.5 μM) [%] | mitochondrial membrane potential (Rhodamine 123) ([3]; 2.5 μM) [%] | early apoptotic cell population (lower right) [4] [%] | early apoptotic cell population (lower right) [5] [%] | percentage of SubG1 peaks ([6]; highest concentration (control 3.62%)) [%] | percentage of G0/G1 peaks ([6]; highest concentration (control 61%)) [%] | BCL-2 expression [7, 13] | Bax expression [7, 13] | amount of 17 kDa cleaved Caspase-3 ([7]; MCF-7, 0.5 to 2.5 μM) | expression of cyt c in the cytoplasm ([7]; MCF-7, concentration increased from 0.5 to 2.5 μM) | IC50 [10] [µM] |
| --- | --- | --- | --- | --- | --- | --- | --- | --- | --- | --- | --- | --- | --- | --- | --- | --- | --- | --- | --- | --- |
|  |  |  | CCC1OC(=O)C(C)C(OC2CC(C)(OC)C(O)C(C)O2)C(C)C(OC2OC(C)CC(N(C)CC=CCN(C)C3CC(C)OC(OC4C(C)C(OC5CC(C)(OC)C(O)C(C)O5)C(C)C(=O)OC(CC)C(C)(O)C(O)C(C)C(=O)C(C)CC4(C)OC)C3O)C2O)C(C)(OC)CC(C)C(=O)C(C)C(O)C1(C)O (centres unmarked) [Compound 1b] | 20.06 | 35 | decreased | significantly increased | increased | increased | 74.17 | 1.00 | 30.30 | 54.84 | 22.51 | 45 | decreased | significantly increased | increased | increased |  |
| 27.1 ± 2.2 | 11.9 ± 0.8 | 3.1 ± 0.3 | CCC1OC(=O)C(C)C(O)C(C)C(OC2OC(C)CC(N(C)CC=CCN(C)C3CC(C)OC(OC4C(C)C(OC5CC(C)(OC)C(O)C(C)O5)C(C)C(=O)OC(CC)C(C)(O)C(O)C(C)C(=O)C(C)CC4(C)OC)C3O)C2O)C(C)(OC)CC(C)C(=O)C(C)C(O)C1(C)O (centres unmarked) [Compound 1i] |  |  |  |  |  |  |  |  |  |  |  |  |  |  |  |  | > 100 |
